In general, Ki refers to the dissociation constant of the complex between target and ligand, obtained from inhibition or displacement. A lower Ki goes with higher affinity.

Drawing on paper PMC11121358, “Redox Properties of Bacillus subtilis Ferredoxin:NADP^+ Oxidoreductase: Potentiometric Characteristics and Reactions with Pro-Oxidant Xenobiotics” (International Journal of Molecular Sciences, 2024), this text covers Ki for 1 compound.

This test deals with T1, Bacillus subtilis ferredoxin:NADP^+ oxidoreductase (BsFNR) (Bacillus subtilis, UniProt O05268).
T1 construct: gene yumC
Nature of the test: steady-state product inhibition of NADPH:plumbagin reductase reaction. The test is classed as biochemical.

T1 sequence (O05268 whole entry): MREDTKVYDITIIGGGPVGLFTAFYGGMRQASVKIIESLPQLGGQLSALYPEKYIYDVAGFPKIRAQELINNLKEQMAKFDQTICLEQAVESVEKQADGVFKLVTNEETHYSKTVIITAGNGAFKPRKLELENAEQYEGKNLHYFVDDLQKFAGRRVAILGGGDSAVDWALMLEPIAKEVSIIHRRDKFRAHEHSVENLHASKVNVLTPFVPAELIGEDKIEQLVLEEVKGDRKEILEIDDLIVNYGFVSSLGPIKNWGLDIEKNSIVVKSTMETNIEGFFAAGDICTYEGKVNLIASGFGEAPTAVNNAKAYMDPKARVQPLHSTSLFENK

`NC(=O)c1ccc[n+]([C@@H]2O[C@H](COP(=O)(O)OP(=O)(O)OC[C@H]3O[C@@H](n4cnc5c(N)ncnc54)[C@H](OP(=O)(O)O)[C@@H]3O)[C@@H](O)[C@H]2O)c1` [NADP^+] registered an inhibition constant (Ki) of 62.6 ± 10.5 µM.
